Assay results reported in patent US20130150317A1, “COMPOUNDS FOR THE TREATMENT OF RENAL CELL CARCINOMA” (Myrovlytis Technology Ventures Limited, priority 2010, published 2013).
Entries after “also recorded” stand apart in the source; their conditions may differ. Read-outs that look alike come from different tables or passages of the source.

Assays:
[1] = test system: caspase3/7 activity in UOK257-FLCN^− and UOK257-FLCN^+ cells; experiment: Caspase-Glo 3/7 assay in UOK-257 cells with/without FLCN expression; assay type: cell-based, human
Method: (§1) The ability to induce caspase 3/7 activation after exposure to compounds was measured by Caspase-Glo 3/7 Assay (Promega, Southampton, United Kingdom) according to manufacturer's instruction. The cells were seeded and dosed as described in growth inhibition assay. At the end of incubation, 70 μl of medium was removed and 30 μl of assay reagent was added to the remaining medium. Additional one hour incubation with shaking was carried out at room temperature. The resultant luminescent light was measured in a Victor X3 Multilabel Plate Reader (PerkinElmer, Beaconsfield, United Kingdom). Cell viability after compound exposure was determined by CellTiter-Blue Cell Viability Assay (Promega, Southampton, the United Kingdom) according to manufacturer's instruction. At the end of drug treatment, 20 μl of reagent was added to the medium in 96 wells and the cells were incubated for additional 4 hours. The cell viability was measured by fluorescence with a 570 nm excitation and 590 nm emission set in a Victor X3 Multilabel Plate Reader (PerkinElmer, Beaconsfield, United Kingdom).
After 48 hrs incubation, with three concentration ranges for each drug, the capase3/7 activity was detected by amount of luminescence for each cell line. The ratio of caspase3/7 activity from UOK257-FLCN^− and UOK257-FLCN^+ were calculated and used as indicators for the ability of the individual compound to induce caspase3/7 activity to FLCN mutant cells.
These ratios were calculated and used as indicators for the sensitivity to mutant FLCN cells.

[2] = test system: UOK257-FLCN^− and UOK257-FLCN^+ cells; experiment: CellTiter-Blue cell viability assay in UOK-257 cells with/without FLCN expression; assay type: cell-based, human; conditions: 200 nM, 48 hrs
Method: as §1
These were calculated and used as indicators for the sensitivity to mutant FLCN cells. Cells were exposed continuously to the indicated concentrations of drugs for 48 hours. Values are the mean±SD from at least three experiments.

[3] = test system: caspase3 in UOK257-FLCN^− cells; experiment: Western blot of cellular caspase3 protein after mithramycin; assay type: cell-based, human; conditions: mithramycin 25, 50, 100, 200 nM, 48 hours
Method: Cellular protein expression in UOK Cells with/without FLCN expression in response to drug exposure was determined using total cell extracts at 48 h after treatment, according to standard procedures. Protein concentration was determined using DC protein assay kit according to the manufacturer's instructions (Bio-Rad Laboratories Ltd, Hertfordshire, United Kingdom). Twenty […] of protein from each sample was electrophoresed on 12.5% (w/v) SDS-PAGE gels and electroblotted on to nitrocellulose membrane (Amersham Pharmacia Biotech UK Ltd., Buckinghamshire, United Kingdom). Antibody against FLCN (a gift from Prof. Arnim Pause, Rosalind and Morris Goodman Cancer Centre Montreal, Canada), caspase3 (Cell Signalling Technology, Hertfordshire, United Kingdom), and actin (Sigma-Aldrich Company Ltd., Dorset, United Kingdom) were used. The signal was detected using the enhanced chemiluminescence (ECL+Plus, Amersham) system after addition of anti-mouse IgG-HRP conjugate (DAKO, Ely, United Kingdom).

UOK-FLCN^+ cells = conditions: 4×GI50 mithramycin, no rapamycin
Method: At the end of the time course, media was carefully removed and cells were fixed in 85% ice-cold ethanol. After removal of ethanol, cells were incubated in the dark at 37° C. for 20 minutes in PBS buffers containing 0.1% Triton X-100, 100 mg/mL RNase A and 10 mg/mL Propidium iodide (PI). The 96-well plates were subsequently scanned using the Acumen eX3 cytometer (TTP LabTech).

## CO[C@H](C(=O)[C@@H](O)[C@@H](C)O)C1Cc2cc3cc(OC4CC(OC5CC(O)C(O)C(C)O5)C(O)C(C)O4)c(C)c(O)c3c(O)c2C(=O)[C@H]1OC1CC(OC2CC(OC3CC(C)(O)C(O)C(C)O3)C(O)C(C)O2)C(O)C(C)O1 (some centres unmarked) [mithramycin, Mithramycin]
[1]
  induction of caspase 3/7 activity, FLCN-null versus FLCN-wild type cells (in words): preferentially induced caspase 3/7 activity in UOK257 FLCN-null cells in a dose dependent manner; also recorded: Differential ability to induce caspase 3/7 activity
[1]; listed as Mithramycin
  induction of caspase 3/7 activity, FLCN-null versus FLCN-wild type cells (in words): preferentially induces caspase 3/7 activity in FLCN-null cells in a dose dependent manner
[2]
  ratio of cell viability from UOK257-FLCN^+ and UOK257-FLCN^− (cell death): 2 fold
[3]
  active forms of cleaved caspase3 (Western blot): found at 100 and 200 nM, but not in low concentrations of mithramycin (25 and 50 nM)
UOK-FLCN^+ cells
  increase in S and G2-M phases: 15%
